Values joined by “and” are separate entries in the source; they are usually repeats but may differ in a detail not shown here. Identical values can stand only once.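 All cell lines were grown in 96-well plates and treated with compound for 48 hours. Here, GI50 denotes the concentration required for 50% inhibition of growth. TGI marks complete inhibition of growth.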
How the values were obtained:
Assay in all cases: growth of human tumour cells (NCI), 48 h
[1] = test system: RXF 393 renal
[2] = test system: NCI/ADR-RES ovarian
[3] = test system: NCI-H522 lung
[4] = test system: HS 578T breast
[5] = test system: ACHN renal
[6] = test system: A549 NSCLC
[7] = test system: T-47D breast
[8] = test system: HOP-62 NSCLC
[9] = test system: U251 CNS
[10] = test system: IGROV1 ovarian

SMILES	GI50 [1]	TGI [1]	GI50 [2] [µM]	TGI [2] [µM]	GI50 [3]	TGI [3]	GI50 [4] [µM]	TGI [4] [µM]	GI50 [5]	TGI [5]	GI50 [6]	TGI [6]	GI50 [7]	TGI [7] [µM]	GI50 [8]	TGI [8]	GI50 [9]	TGI [9]	GI50 [10]	TGI [10]
COc1ccc(N=C2NN=C(c3c[nH]c4ccccc34)CS2)cc1OC	6.19 µM	> 25.7 µM	3.15	> 28	7.17 µM	> 100 µM	5.38	> 100	17.3 µM	> 100 µM	9.92 µM	> 53.1 µM	5.04 µM	> 73.3	12.7 µM	> 84.1 µM	6.38 µM	> 100 µM	10.5 µM	> 100 µM
O=c1[nH]c(-c2ccccn2)nc2sc3c(c12)CCCCCC3	7.42 µM	> 100 µM	0.961	> 100	> 100 µM	> 100 µM	6.45	> 100	5.19 µM	> 100 µM	2.57 µM	> 100 µM	5.54 µM	> 100	6.24 µM	> 100 µM	2.16 µM	> 100 µM	3.98 µM	> 100 µM
C=CC[PH+](c1ccccc1)c1ccccc1.C=CC[PH+](c1ccccc1)c1ccccc1.[Cl][Pt][Cl]	3.33 µM	9.82 µM	25.1	> 100	2.68 µM	8.19 µM	13.4	48.6	3.73 µM	12.9 µM	21.8 µM	> 100 µM	4.59 µM	24.6	18.5 µM	40.5 µM	7.45 µM	22.3 µM	3.68 µM	13.9 µM
N#Cc1ccc(N2Cc3cc(Cl)ccc3OC3=C2C(=O)N(Cc2ccccc2)C3=O)cc1	1.54 µM	3.05 µM	2.69	11.4	0.25 µM	0.62 µM	2.62	9.25	0.87 µM	2.2 µM	10.1 µM	26.7 µM	0.714 µM	2.58	2.35 µM	6.12 µM	1.56 µM	2.98 µM	2.19 µM	4.88 µM
O=[N+]([O-])c1cccc(-c2ncc(-c3ccc(Cl)cc3Cl)[nH]2)c1	2.25 µM	6 µM	11.6	> 83.3	10.3 µM	> 27.2 µM	3.89	> 49.5	7.48 µM	18.3 µM	22 µM	> 56.9 µM	6.88 µM	28.5	9.53 µM	26.8 µM	2.67 µM	6.96 µM	6.65 µM	13.5 µM
CCCCCCN1C(=O)CN=C1Nc1ccc2cc3ccc(NC4=NCC(=O)N4CCCCCC)cc3nc2c1	1.52 µM	3.22 µM	3.32	15	1.79 µM	3.91 µM	2.08	5.66	1.76 µM	3.42 µM	2.03 µM	3.96 µM	1.71 µM	4.97	–	–	1.63 µM	3.13 µM	1.85 µM	4.28 µM
CCCOc1c2cc(COC3OC(CO)C(O)C(O)C3O)cc1Cc1cc(COC3OC(CO)C(O)C(O)C3O)cc(c1OCCC)Cc1cc(COC3OC(CO)C(O)C(O)C3O)cc(c1OCCC)Cc1cc(COC3OC(CO)C(O)C(O)C3O)cc(c1OCCC)C2 (configuration not stated)	14.2 µM and 23.9 µM	33.9 µM and 87 µM and 77.4 µM	–	> 100	32.4 µM and 72.8 µM and 13.7 µM	> 100 µM and 26.6 µM	–	> 100	> 100 µM and 23.9 µM	> 100 µM and 63.4 µM	49.5 µM and > 100 µM and 26.9 µM	> 100 µM and 94.4 µM	34.3 µM and 69.9 µM and 29 µM	> 100	> 100 µM and 29.2 µM	> 100 µM and 93.7 µM	49.3 µM and 48.5 µM and 16.6 µM	> 100 µM and 31.6 µM	60.2 µM and > 100 µM and 15.9 µM	> 100 µM and 40.8 µM
C#Cc1ccc(-n2c(/C=C/c3cc(OC)c(OC)c(OC)c3)nc3ncccc3c2=O)cc1	7.04 µM	> 100 µM	3.61	34.5	2.33 µM	6.29 µM	3.67	23	6.63 µM	> 100 µM	5.65 µM	> 100 µM	5.85 µM	> 100	13.3 µM	> 100 µM	9.93 µM	> 100 µM	6.08 µM	> 100 µM
N#CC1(C#N)C2C=CC(C3CCC=C32)C1(C#N)C#N (configuration not stated)	–	> 10 µM	–	> 10	–	> 7.9 µM	–	> 10	–	> 10 µM	–	> 10 µM	–	> 8.87	–	> 10 µM	–	> 10 µM	–	> 10 µM
Cc1nc(C(N)=S)sc1C(=O)CC(=O)C(=O)Nc1cccc(Cl)c1C	–	> 100 µM	–	> 100	–	> 100 µM	–	> 100	–	> 100 µM	–	> 100 µM	–	> 100	–	> 100 µM	–	> 100 µM	–	> 100 µM
COc1ccc(-n2nc(C)c3c2N(C)C2(C)C[C@@H]4C3(C)[C@@H]3CC4(C2)N(C)c2c(c(C)nn2-c2ccc(OC)cc2)[C@H]3C)cc1 (some centres not stated)	2.92 µM	13.3 µM	8.03	> 100	0.891 µM	6.94 µM	4.27	98	6.13 µM	> 100 µM	3.29 µM	> 100 µM	2.44 µM	81.9	3.1 µM	10.5 µM	3.94 µM	22.5 µM	19.5 µM	> 100 µM
OCCCCC#Cc1ccccc1C#Cc1cnccn1	15 µM	54.2 µM	25.1	92.2	24.5 µM	63.7 µM	24.9	85.1	38.8 µM	> 100 µM	38.3 µM	> 100 µM	27.5 µM	> 100	41 µM	> 100 µM	37.8 µM	> 100 µM	25.8 µM	96 µM
CCOC(=O)Cc1csc(NC(=O)C(OC(=O)c2ccc(N)cc2)c2ccccc2)n1 (configuration not stated)	66.4 µM	> 100 µM	43.5	> 100	43 µM	> 100 µM	80.9	> 100	44.9 µM	> 100 µM	51.5 µM	> 100 µM	55.2 µM	> 100	52 µM	> 100 µM	45.5 µM	> 100 µM	52.8 µM	> 100 µM
CCNC(=O)Oc1ccc(/C(=C(\C)c2ccc(Cl)cc2)c2ccc(OCCN3CCCCC3)cc2)cc1	2.19 µM	8.77 µM	5.59	22.7	14.1 µM	29.9 µM	3.62	17.2	4.78 µM	16.7 µM	8.47 µM	22.4 µM	1.34 µM	10.2	4.12 µM	15.4 µM	4.19 µM	14.5 µM	4.13 µM	15.8 µM
O=c1[nH]c2cc(O)ccc2n2cc3c(F)cccc3c12	0.969 µM	> 100 µM	0.698	> 100	0.785 µM	> 100 µM	3.85	> 100	2.04 µM	> 100 µM	1.31 µM	> 100 µM	> 100 µM	> 100	0.847 µM	> 100 µM	2.49 µM	> 100 µM	2.16 µM	> 100 µM
CC(=O)C1=C(O)/C(=C\c2ccco2)OC1=O	–	> 10 µM	–	> 10	–	> 10 µM	–	> 10	–	> 10 µM	–	> 10 µM	–	> 10	–	> 10 µM	–	> 10 µM	–	> 10 µM
CCSc1nc(N)c2cnn(C)c2n1	36.2 µM	> 100 µM	> 100	> 100	62.9 µM	> 100 µM	30.7	74	44.4 µM	> 100 µM	52.6 µM	> 100 µM	0.0485 µM	> 100	–	–	40.6 µM	> 100 µM	53.5 µM	> 100 µM
CC(C)C[C@H](NC(=O)[C@@H](O)[C@H](N)Cc1ccccc1)C(=O)O	–	> 100 µM	–	> 100	> 100 µM	> 100 µM	–	> 100	–	> 100 µM	–	> 100 µM	–	> 100	–	> 100 µM	–	> 100 µM	–	> 100 µM
CN1CCN(C(=S)SCN2C(=O)c3ccccc3S2(=O)=O)CC1	39.5 µM	> 100 µM	34	> 100	7.26 µM	34.1 µM	58.7	> 100	41.3 µM	> 100 µM	28.3 µM	> 100 µM	11 µM	> 100	> 100 µM	> 100 µM	26.5 µM	> 100 µM	44.8 µM	> 100 µM
COC1C(CO)OC(n2c3ccccc3c3c4c(c5c6ccccc6[nH]c5c32)C(=O)NC4=O)C(O)C1OC(=O)C(N)CCCCN (configuration not stated)	2.44 µM	14.8 µM	> 50	> 50	0.168 µM	3.55 µM	1.93	12.2	0.713 µM	3.51 µM	3.27 µM	> 50 µM	–	> 10.3	1.09 µM	17.4 µM	0.282 µM	> 11.5 µM	0.61 µM	4.42 µM
C=C(C)[C@@H]1CCC[C@]2(C(=O)O)CC[C@]3(C)[C@@H](CC[C@@H]4[C@@]5(C)C/C(=C/c6ccncc6)C(=O)C(C)(C)[C@@H]5CC[C@]43C)[C@@H]12	2.09 µM	4.47 µM	3.99	> 100	2.74 µM	9.14 µM	19.4	> 100	2.84 µM	11 µM	1.72 µM	5.26 µM	3.98 µM	> 100	2.78 µM	8.28 µM	2.14 µM	7.38 µM	3.02 µM	9.31 µM
Nc1ccc2c(c1)CN1C(=O)c3ccccc3C1=N2	–	102 µM	–	> 125	12.8 µM	112 µM	–	> 76	34 µM	> 125 µM	–	> 125 µM	–	> 125	45.7 µM	23.8 µM	35.7 µM	121 µM	51 µM	123 µM
O=c1c2cc(F)ccc2sc2c(NCCCN3CCCC3)nc3ccccc3c12	2.33 µM	8.67 µM	1.99	4.49	1.97 µM	3.96 µM	2.18	6.22	1.69 µM	3.18 µM	1.87 µM	3.83 µM	3.89 µM	23.8	–	–	1.81 µM	3.62 µM	1.84 µM	3.85 µM
CCC1(N2C(=O)c3c(F)c(F)c(F)c(F)c3C2=O)C(=O)NC(=O)N(c2ccccc2)C1=O (configuration not stated)	2.75 µM	15.5 µM	7.69	27.1	3.13 µM	26.2 µM	4.14	30.1	4.02 µM	14.9 µM	14 µM	28.6 µM	2.2 µM	4.72	4.93 µM	20.8 µM	1.53 µM	3.07 µM	–	–
CCOC(=O)C1=C(c2ccccc2)N(Cc2ccccc2)C2(O)C=CC(=O)C3C(=O)N(c4ccccc4)C(=O)C132 (configuration not stated)	1.91 µM	3.75 µM	2.98	17	–	–	3.46	18.3	1.9 µM	4.23 µM	2.96 µM	11.4 µM	1.67 µM	4.44	2.67 µM	6.56 µM	1.51 µM	2.93 µM	–	–
O=C(CN=Cc1cccs1)CSC(c1ccccc1)c1ccccc1	17.1 µM	44.1 µM	24.9	88.8	–	–	26.1	97	28.8 µM	79.6 µM	21.7 µM	76.1 µM	20.1 µM	84.3	34 µM	> 100 µM	34.5 µM	> 100 µM	–	–
